Experimental data as given in PMC10974743, “Design, Synthesis, and Biological Evaluation of Novel Phenoxy Acetic Acid Derivatives as Selective COX-2 Inhibitors Coupled with Comprehensive Bio-Pharmacological Inquiry, Histopathological Profiling, and Toxicological Scrutiny” (Molecules, 2024).
Entries after “also recorded” stand apart in the source; their conditions may differ. Marks after values point to notes of the source that are not given here.

Experiments:
[1] = tested on: TNF-α; test: TNF-α content of paw exudate by ELISA, carrageenan paw edema model; format: in vivo, Sprague Dawley rats; settings: vs carrageenan group
Method: (§1) ELISA assessment assays were conducted as cited (Supplementary Materials, page 53).
(§2) In-vivo anti-inflammatory activity […]
(§3) cervical dislocation. […] The percentage
(§4) Weight of the left paw] ×100.
(§5) Assessment of inflammatory biomarkers using ELISA […]
(§6) content, using enzyme -linked immunosorbent assay (ELISA). The ELISA kits were purchased from CLOUD -CLONE CORP (CCC, USA) (Cat# SEA133Ra) and MyBioSource company (British Columbia, Canada) (Cat# MBS730592) respectively, and the assays were performed following the manufacturer' s instructions. Additionally, the protein content of the exudates was determined using the Bradford method.

[2] = tested on: PGE2; test: PGE2 content of paw exudate by ELISA, carrageenan paw edema model; format: in vivo, Sprague Dawley rats; settings: vs carrageenan group
Method: as §1, §2, §3, §4, §5, §6

[3] = tested on: nociceptive responses on hot plate; test: Hot plate latency test (analgesic activity); format: in vivo, rats; settings: for Hot plate latency period: plate 50 °C, mean ± SD, n = 6
Method: The hot plate latency test was performed according to the following procedures (Supplementary Materials, page 54). […]
In summary, thirty rats
The normal control group received 1% CMC, while the remaining groups were administered their respective reference or test compounds. Each rat was gently positioned on a heated plate set at 50 ◦C. The latency period for nociceptive responses, such as paw licking or jumping off the hot plate, was recorded at 30-, 60-, 90-, and 120 minutes post-administration of the reference drugs, test […]

[4] = tested on: paw tissue, carrageenan paw edema model; test: Histopathological examination of paws, inflammatory cell infiltration score; format: in vivo, rats; settings: for Paw histopathological finding: H&E staining, carrageenan paw edema; for Reduction in inflammatory cell infiltration score: vs carrageenan group, paw, 5 hours
Method: The histopathological assessments were performed according to the following procedures (Supplementary Materials, page 54). […]
Histopathological examination
Thirty-six rats were separated into six groups of six rats each for histological assessment […]
groupings consisted of a control group, a carrageenan group, two groups for the reference drugs […]
protocols that were utilized in the in-vivo anti-inflammatory activity test were used. After a duration of 5 hours, the animals were euthanized, and their left paws were amputated. The paws were preserved in 10% neutral buffered formalin, trimmed, washed, dehydrated in increasing concentrations of ethyl alcohol, clarified in xylene, and ultimately embedded in paraffin. They were then sliced into 4-6µ thick slices, stained with Hematoxylin and Eosin, and examined under a light microscope. A scoring system was used to evaluate the degree of inflammation, dividing it into six categories ranging from 0 indicating no inflammation to 5 indicating severe inflammation.
Each score corresponded to a certain level of inflammation: 0 for no inflammation, 1 for mild inflammation, 2 for mild to moderate inflammation, 3 for moderate inflammation, 4 for moderate to severe inflammation, and 5 for severe inflammation.

[5] = Assessment of liver and kidney function (serum ALT, AST, creatinine, urea); format: in vivo, rats; parameters: Urea: unit not given here; settings: mean ± SD; for ALT / AST / AST/ALT / Urea: n = 6; for Creatinine: n = 6, in mg/dL (unit assumed)
Method: These assessments were conducted following the manufacturer’s instructions (Supplementary Materials, page 55).
In-vivo anti-inflammatory activity
as §3, §4
Assessment of inflammatory biomarkers using ELISA

[6] = tested on: carrageenan-induced paw edema; test: Carrageenan paw edema test (paw thickness, paw weight); settings: for Paw thickness difference: oral; for Paw thickness difference / Paw Weight Increase: mean ± SD, n = 6; for Percentage of inhibition of paw thickness / Inhibition of percentage of paw weight increase: vs carrageenan group; for Paw Weight Increase: right vs left paw, after 5 h
Method: The carrageenan paw edema test was conducted following established procedures as detailed (Supplementary Materials, page 53).
The carrageenan paw edema test was conducted following established procedures. In summary, seventy-two rats were randomly assigned to twelve groups, each comprising six rats.
These groups included normal controls, carrageenan controls (both receiving the vehicle; 1%
Acute inflammation was induced in the right hind paws of all rats one hour after oral administration of the respective compounds or vehicle. This was achieved by injecting a freshly prepared 0.1 mL carrageenan suspension (1% in normal saline) subplantarly into the right hind paw, except for the normal control group, which received a saline injection. Paw thickness was measured hourly (Ct) until the fifth hour (C5) post-carrageenan injection (C0). The hourly increase in paw thickness (paw thickness difference) was calculated by subtracting the initial measurement (C0) from the thickness at each hour (Ct), and the results were presented as the mean increase in paw thickness (mm). To evaluate anti-inflammatory effects, the percentage of inhibition for each standard and test compound was determined using the formula: percentage of inhibition (%) = [(Paw thickness difference of carrageenan group - Paw thickness difference of treated)/ Paw thickness difference of carrageenan group] × 100. […] The paws were then excised and weighed (both left and right). The percentage of weight increase between the left and right paws of each animal was calculated using the equation: Percentage of weight increase = [(Weight of the right paw - Weight of the left paw) / Weight of the left paw] ×100.

[7] = target: T1, ovine COX-1 (Ovis aries, UniProt P05979); test: In vitro COX-1 inhibition assay (Cayman colorimetric COX inhibitor screening kit)
T1 sequence (P05979 25-600): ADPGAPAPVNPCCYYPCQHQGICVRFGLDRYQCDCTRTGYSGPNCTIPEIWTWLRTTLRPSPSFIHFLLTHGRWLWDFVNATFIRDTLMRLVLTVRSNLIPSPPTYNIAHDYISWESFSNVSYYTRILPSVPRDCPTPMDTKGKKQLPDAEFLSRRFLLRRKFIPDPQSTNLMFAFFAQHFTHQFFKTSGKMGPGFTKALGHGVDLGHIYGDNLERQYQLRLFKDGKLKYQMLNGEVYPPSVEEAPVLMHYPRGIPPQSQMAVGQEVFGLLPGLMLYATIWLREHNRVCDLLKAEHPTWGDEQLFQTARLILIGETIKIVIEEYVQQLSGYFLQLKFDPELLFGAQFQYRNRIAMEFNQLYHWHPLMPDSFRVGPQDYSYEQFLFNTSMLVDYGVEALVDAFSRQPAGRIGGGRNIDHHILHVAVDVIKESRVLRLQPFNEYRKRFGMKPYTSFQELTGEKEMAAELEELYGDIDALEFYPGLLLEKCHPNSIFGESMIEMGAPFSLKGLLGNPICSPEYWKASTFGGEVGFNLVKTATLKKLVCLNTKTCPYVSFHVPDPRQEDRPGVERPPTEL
Method: (§7) The in vitro enzyme assays were performed at the Biochemistry Department, Cairo
(§8) General Hospital, Egypt. Cayman® colorimetric COX (ovine) inhibitor screening assay kit (Item
(§9) enzymes in presence of all newly compounds. Generally, this kit is dependent on the reductive
(§10) reaction of COX. A specific antibody binds to PGH2 produced by COX and is further quantified
(§11) by the ELISA technique as previously reported. After that, the selectivity index (SI) was calculated
as the following equation:
𝐒𝐞𝐥𝐞𝐜𝐭𝐢𝐯𝐢𝐭𝐲 𝐢𝐧𝐝𝐞𝐱 (𝐒𝐈) = 𝐈𝐂₅₀𝐨𝐟 𝐂𝐎𝐗 − 𝟏

[8] = target: T2, human COX-2 (Homo sapiens, UniProt P35354); test: In vitro COX-2 inhibition assay (Cayman colorimetric COX inhibitor screening kit); settings: for IC50: COX-2 IC50, mean ± SEM, n = 3
T2 sequence (P35354 18-604): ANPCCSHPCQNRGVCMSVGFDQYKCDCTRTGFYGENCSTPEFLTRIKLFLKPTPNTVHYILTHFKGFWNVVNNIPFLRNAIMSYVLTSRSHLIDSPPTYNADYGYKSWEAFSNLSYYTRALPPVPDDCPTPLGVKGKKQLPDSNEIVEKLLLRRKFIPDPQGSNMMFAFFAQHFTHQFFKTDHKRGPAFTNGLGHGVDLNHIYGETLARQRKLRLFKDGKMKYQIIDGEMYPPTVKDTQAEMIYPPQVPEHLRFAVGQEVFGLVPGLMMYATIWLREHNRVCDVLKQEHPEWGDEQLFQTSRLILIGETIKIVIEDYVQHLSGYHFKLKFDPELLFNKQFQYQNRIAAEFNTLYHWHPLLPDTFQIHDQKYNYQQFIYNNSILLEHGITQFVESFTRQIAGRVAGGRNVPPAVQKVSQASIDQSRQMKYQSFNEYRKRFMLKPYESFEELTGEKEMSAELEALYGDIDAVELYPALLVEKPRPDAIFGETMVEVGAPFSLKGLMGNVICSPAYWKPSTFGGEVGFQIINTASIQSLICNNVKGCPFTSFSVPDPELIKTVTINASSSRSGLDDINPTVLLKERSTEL
Method: as §7, §8, §9, §10, §11
as the following equation:
𝐒𝐞𝐥𝐞𝐜𝐭𝐢𝐯𝐢𝐭𝐲 𝐢𝐧𝐝𝐞𝐱 (𝐒𝐈) = 𝐈𝐂₅₀𝐨𝐟 𝐂𝐎𝐗 − 𝟏

[9] = tested on: gastric mucosa; test: Evaluation of ulcerogenic effects (macroscopic scores and gastric histopathology); settings: for Gastric mucosa histopathological finding: H&E staining; for Ulcer Number Score / Ulcer Severity Score: mean ± SD; for Ulcer Number Score: n = 6; for Ulcer Severity Score: n = 6, scale 0 to 5
Method: The assessment of ulcerogenic effects was conducted following established procedures [42, 57]
Following the experimental period, the animals were euthanized using pentobarbital sodium (100 mg/kg), and blood was collected via jugular vein exsanguination for later evaluation of liver and kidney function, and subsequently sacrificed by cervical dislocation. […] Following this, the animals' stomachs were removed, inflated, and opened along the greater curvature to evaluate ulcerogenic effects.
B: Ulcer lesion severity scoring system
2.5 More than 10 small ulcers
3 1 marked ulcer plus 0 to 4 small ulcers
3.5 1 marked ulcer plus 5 or more small ulcers
4 2 marked ulcers plus 0 to 4 small ulcers
4.5 2 marked ulcers plus 5 or more small ulcers
5 3 or more marked ulcers
The statistical analysis of the data was conducted using GraphPad Prism 9.5.1 Demo
(GraphPad Software, San Diego, CA). One -way analysis of variance (ANOVA) was utilized to
evaluate differences among the various groups, except for paw edema volume, which un derwent
analysis using two -way ANOVA. Post -hoc analysis was performed using Tukey's multiple
significance set at P < 0.05

Structure (SMILES) | Reduction of TNF-α exudate content [1] | Reduction of PGE2 exudate content [2] | Increase in latency period ([3]; 30 min mark) | Hot plate latency period ([3]; 30 min post-administration) | Hot plate latency period ([3]; 60 min post-administration) | Hot plate latency period ([3]; 90 min post-administration) | Increase in latency period ([3]; 120 min mark) | Hot plate latency period ([3]; 120 min post-administration) | Paw histopathological finding [4] | Reduction in inflammatory cell infiltration score [4] | ALT [5] | AST [5] | AST/ALT [5] | Urea [5] | Creatinine [5] | Paw thickness difference ([6]; 1st h after carrageenan) | Percentage of inhibition of paw thickness ([6]; 1st h) | Paw thickness difference ([6]; 2nd h after carrageenan) | Percentage of inhibition of paw thickness ([6]; 2nd h) | Paw thickness difference ([6]; 3rd h after carrageenan) | other results
O=C(O)COc1ccc(Br)cc1C=NNC(=O)c1ccc(Cl)cc1 [Compound 5f, 2-(4-Bromo-2-((2-(4-chlorobenzoyl)hydrazineylidene)methyl)phenoxy)acetic acid] | 61.04% | 60.58% | 39.43% | 8.99 ± 0.38 ^abc | 10.59 ± 0.3 ^abc | 12.48 ± 0.65 ^ab | 49.50% | 14.15 ± 0.38 ^a | infiltration by a few numbers of inflammatory cells mainly eosinophils and lymphocytes; also recorded: dermal edema with limited infiltration of inflammatory cells | 70.37% | 92.76 ± 3.83 IU/L | 93.69 ± 5.26 IU/L | 1.01 ± 0.08 | 26.37 ± 2.48 | 0.67 ± 0.04 | 0.83 ± 0.15 mm | 58.11% | 1.65 ± 0.29 mm | 49.85% | 2.32 ± 0.17 mm | Percentage of inhibition of paw thickness ([6]; 3rd h): 45.05%; Paw thickness difference ([6]; 4th h after carrageenan): 2.68 ± 0.12 mm; Percentage of inhibition of paw thickness ([6]; 4th h): 46.9%; Paw thickness difference ([6]; 5th h after carrageenan): 2.84 ± 0.13 mm; Paw Weight Increase [6]: 29.85 ± 3.88 ^ab %; Inhibition of percentage of paw weight increase [6]: 68.26%; IC50 [7]: 8 ± 0.2 µM; SI (COX-2 selectivity index) ([8]; COX-1 (IC50)/COX-2 (IC50)): 133.34; IC50 [8]: 0.06 ± 0.01 µM; Gastric mucosa histopathological finding [9]: normal histological structure of gastric mucosa; also recorded: normal histological structure of the stomach mucosa; Ulcer Number Score [9]: 0.50 ± 0.55 ^d; Ulcer Severity Score [9]: 0.33 ± 0.41 ^d
O=C(O)COc1ccc(Br)cc1C=NNC(=O)Cc1ccccc1 [Compound 7b, 2-(4-Bromo-2-((2-(2-phenylacetyl)hydrazineylidene)methyl)phenoxy)acetic acid] | 64.88% | 57.07% | 37.67% | 8.88 ± 0.29 ^ac | 10.35 ± 0.35 ^ac | 12.09 ± 0.29 ^ac | 44.90% | 13.71 ± 0.31 ^a | dermal infiltration by a moderate number of mononuclear inflammatory cells; also recorded: moderate infiltration of mononuclear inflammatory cells in the dermis | 62.96% | 89.13 ± 8.53 IU/L | 97.59 ± 6.19 IU/L | 1.10 ± 0.12 | 27.16 ± 1.53 | 0.68 ± 0.05 | 0.65 ± 0.16 mm | 67.23% | 1.08 ± 0.21 mm | 67.11% | 1.64 ± 0.13 mm | Percentage of inhibition of paw thickness ([6]; 3rd h): 61.23%; Paw thickness difference ([6]; 4th h after carrageenan): 1.90 ± 0.19 mm; Percentage of inhibition of paw thickness ([6]; 4th h): 62.42%; Paw thickness difference ([6]; 5th h after carrageenan): 1.95 ± 0.19 mm; Paw Weight Increase [6]: 33.07 ± 1.88 ^ab %; Inhibition of percentage of paw weight increase [6]: 64.84%; IC50 [7]: 5.93 ± 0.12 µM; IC50 [8]: 0.06 ± 0.01 µM; Gastric mucosa histopathological finding [9]: infiltration of gastric mucosa by a few numbers of mononuclear inflammatory cells; Ulcer Number Score [9]: 0.67 ± 0.52; Ulcer Severity Score [9]: 0.42 ± 0.38
